Measured values as given in patent US9682925B2, “Cyclopropaneamine compound” (TAKEDA PHARMACEUTICAL COMPANY LIMITED, priority 2011, dated 2017).

What was measured:
Format in all cases: biochemical
[1] = target: T1, human LSD1(171-852) (Homo sapiens, UniProt O60341); assay: Measurement of LSD1 inhibitory activity (time-resolved fluorescence, biotin-histone H3 mono methylated K4 peptide); settings: read-out: LSD1 IC50 value
T1 construct: to give hLSD1(171-852) purified product; made in house; host or cells: Escherichia coli C43(DE3) pLysS
Description: When the turbidity reached 600 Klett units, the culture temperature was changed to 16° C., IPTG having a final concentration of 0.5 mM was added to induce expression, and the cells were cultured further for 21 hr. The culture medium was centrifuged at 9,000 g for 10 min, and Escherichia coli pellets were recovered.
Escherichia coli pellets in 9 L of the culture medium were suspended in 1340 mL of an extraction buffer (PBS, 5% (V/V) Glycerol), and 6700 units of Benzonase (Merck) were added. Using Branson ultrasonic disintegrator, the suspension was disrupted by ultrasonication for 3 min, and centrifuged at 33,000 g for 20 min, and the supernatant was recovered.
(5) Measurement of LSD1 Inhibitory Activity
After reaction at room temperature for 20 min, 1 mM 2-PCPA solution (5 μL) was added to terminate the reaction. A detection solution (800 mM potassium fluoride, 0.1% BSA) containing europium-labeled antihistone H3 antibody (Wako Pure Chemical Industries, Ltd.) and Streptavidin-XL665 (Cisbio) was further added by 5 μL, and the mixture was left standing for 60 min. A time-resolved fluorescence (excitation 320 nm, emission 615 nm, 665 nm) was measured by Envision (PerkinElmer). The LSD1 inhibitory rate (%) of the test compound was calculated by the following formula. inhibitory rate (%)=(1−(test compound count−blank)÷(control−blank)×100
The count of the LSD1 enzyme reaction mixture under compound non-addition conditions is indicated as control, and the count under compound non-addition and LSD1 enzyme non-addition conditions is indicated as blank.

[2] = target: T2, MAO-A (Homo sapiens, UniProt P21397); assay: Measurement of MAO-A inhibitory activity (MAO-Glo Assay)
T2 construct: purchased Sigma-Aldrich Co. LLC
T2 sequence (P21397 1-527): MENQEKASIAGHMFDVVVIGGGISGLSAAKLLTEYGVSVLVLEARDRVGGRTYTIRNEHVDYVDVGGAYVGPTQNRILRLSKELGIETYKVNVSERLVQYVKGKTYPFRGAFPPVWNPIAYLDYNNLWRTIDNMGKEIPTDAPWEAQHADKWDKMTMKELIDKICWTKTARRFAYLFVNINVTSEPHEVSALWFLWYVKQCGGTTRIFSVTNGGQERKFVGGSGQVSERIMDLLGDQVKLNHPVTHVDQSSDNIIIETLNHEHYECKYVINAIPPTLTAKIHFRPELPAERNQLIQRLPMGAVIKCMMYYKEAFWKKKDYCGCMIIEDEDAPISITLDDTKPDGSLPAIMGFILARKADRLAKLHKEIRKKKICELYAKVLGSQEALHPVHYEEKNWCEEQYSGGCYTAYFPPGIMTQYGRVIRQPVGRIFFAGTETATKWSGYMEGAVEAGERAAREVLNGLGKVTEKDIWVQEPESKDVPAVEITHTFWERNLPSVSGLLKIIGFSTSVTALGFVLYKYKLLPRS
Description: (1) Measurement of MAO-A Inhibitory Activity
The MAO-A inhibitory activity evaluation described below followed the protocol of MAO-Glo (registered trademark) Assay of Promega KK.
(§1) A test compound dissolved in 4% DMSO was added by 12.5 μL to 25 μL reaction solution (100 mM HEPES (pH 7.5), 5% glycerol) containing 400 ng of MAO-A enzyme (Sigma-Aldrich Co. LLC.), and the mixture was reacted at room temperature for 10 min. MAO substrate (Promega KK) (160 μM) was added by 12.5 μL to start the reaction. After reaction at room temperature for 60 min, Luciferine detection reagent (Promega KK) (50 μL) was added to terminate the reaction. After reaction at room temperature for 20 min with stirring, the luminescence was measured by Envision (PerkinElmer). The MAO-A inhibitory rate (%) of the test compound was calculated by the following formula. inhibitory rate (%)=(1−(test compound count−blank)÷(control−blank)×100
The count of the MAO-A enzyme reaction mixture under compound non-addition conditions is indicated as control, and the count under compound non-addition and MAO-A enzyme non-addition conditions is indicated as blank.

[3] = target: T3, MAO-B (Homo sapiens, UniProt P27338); assay: Measurement of MAO-B inhibitory activity (MAO-Glo Assay)
T3 construct: purchased Sigma-Aldrich Co. LLC
T3 sequence (P27338 1-520): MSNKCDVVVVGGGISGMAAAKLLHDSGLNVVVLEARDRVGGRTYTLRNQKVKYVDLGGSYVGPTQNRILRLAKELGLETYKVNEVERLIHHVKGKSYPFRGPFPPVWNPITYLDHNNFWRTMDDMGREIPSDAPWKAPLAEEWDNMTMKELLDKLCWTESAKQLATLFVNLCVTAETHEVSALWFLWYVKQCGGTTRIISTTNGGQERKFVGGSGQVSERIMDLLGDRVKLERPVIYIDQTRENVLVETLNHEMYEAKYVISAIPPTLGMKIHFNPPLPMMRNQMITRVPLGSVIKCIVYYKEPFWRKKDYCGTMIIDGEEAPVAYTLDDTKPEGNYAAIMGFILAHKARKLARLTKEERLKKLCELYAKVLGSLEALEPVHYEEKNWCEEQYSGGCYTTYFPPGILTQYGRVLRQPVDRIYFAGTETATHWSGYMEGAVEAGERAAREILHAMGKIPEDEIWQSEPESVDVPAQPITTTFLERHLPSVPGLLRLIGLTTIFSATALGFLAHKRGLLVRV
Description: (2) Measurement of MAO-B Inhibitory Activity
The MAO-B inhibitory activity evaluation described below followed the protocol of MAO-Glo (registered trademark) Assay of Promega KK.
as §1, with “glycerol, 10% DMSO)” for “glycerol)”, “MAO-B” for “MAO-A”, “(16” for “(160”
The count of the MAO-B enzyme reaction mixture under compound non-addition conditions is indicated as control, and the count under compound non-addition and MAO-B enzyme non-addition conditions is indicated as blank.

Compound	IC50 [1] [nM]	IC50 [2] [µM]	IC50 [3] [µM]
O=C(Nc1ccc([C@@H]2C[C@H]2NCc2ccccc2)cc1)c1cccc(CCc2ccccc2)c1 (relative stereo) [Example 34, N-{4-[trans-2-(benzylamino)cyclopropyl]phenyl}-3-(2-phenylethyl)benzamide]	190	> 10	> 10
O=C(Nc1ccc([C@@H]2C[C@H]2NCc2ccccc2)cc1)c1ccc(-c2ccccc2)cc1 (relative stereo) [Example 35, N-{4-[trans-2-(benzylamino)cyclopropyl]phenyl}biphenyl-4-carboxamide]	130	1.3	> 10
O=C(Nc1ccc([C@@H]2C[C@H]2NCc2ccccc2)cc1)c1cccc(-c2ccccc2)c1 (relative stereo) [Example 36, N-{4-[trans-2-(benzylamino)cyclopropyl]phenyl}biphenyl-3-carboxamide]	< 100	4.6	> 10
O=C(Nc1ccc([C@@H]2C[C@H]2NCc2cccnc2)cc1)c1ccc(-c2ccccc2)cc1 (relative stereo) [Example 38, N-(4-{trans-2-[(pyridin-3-ylmethyl)amino]-cyclopropyl}-phenyl)biphenyl-4-carboxamide]	< 100	9.1	> 10
O=C(Nc1ccc([C@@H]2C[C@H]2NCc2ccncc2)cc1)c1ccc(-c2ccccc2)cc1 (relative stereo) [Example 39, N-(4-{trans-2-[(pyridin-4-ylmethyl)amino]-cyclopropyl}-phenyl)biphenyl-4-carboxamide]	< 100	> 10	> 10
COc1cccc(CN[C@@H]2C[C@H]2c2ccc(NC(=O)c3ccc(-c4ccccc4)cc3)cc2)c1 (relative stereo) [Example 41, N-(4-{trans-2-[(3-methoxybenzyl)-amino]cyclo-propyl}phenyl)-biphenyl-4-carboxamide]	110	5.8	5.1
O=C(Nc1ccc([C@@H]2C[C@H]2NCc2ccc3c(c2)OCO3)cc1)c1ccc(-c2ccccc2)cc1 (relative stereo) [Example 42, N-(4-{trans-2-[(1,3-benzodioxol-5-ylmethyl)amino]-cyclopropyl}-phenyl)biphenyl-4-carboxamide]	< 100	> 10	> 10
COc1ccc(CN[C@@H]2C[C@H]2c2ccc(NC(=O)c3ccc(-c4ccccc4)cc3)cc2)cc1 (relative stereo) [Example 43, N-(4-{trans-2-[(4-methoxybenzyl)-amino]cyclo-propyl}phenyl)-biphenyl-4-carboxamide]	110	3.3	4.7
NCCN[C@@H]1C[C@H]1c1ccc(NC(=O)c2ccc(-c3ccccc3)cc2)cc1 (relative stereo) [Example 44, N-(4-{trans-2-[(2-aminoethyl)-amino]cyclo-propyl}phenyl)-biphenyl-4-carboxamide]	< 100	> 10	9.3
O=C(Nc1ccc([C@@H]2C[C@H]2NC2CCCCCCC2)cc1)c1ccc(-c2ccccc2)cc1 (relative stereo) [Example 45, N-{4-[trans-2-(cyclooctyl-amino)cyclo-propyl]phenyl}-biphenyl-4-carboxamide]	290	> 10	> 10
COc1ccc(CN[C@@H]2C[C@H]2c2ccc(NC(=O)c3ccc(-c4ccccc4)cc3)cc2)cc1OC (relative stereo) [Example 46, N-(4-{trans-2-[(3,4-dimethoxy-benzyl)amino]cyclo-propyl}phenyl)-biphenyl-4-carboxamide]	< 100	> 10	> 10
CC(N[C@@H]1C[C@H]1c1ccc(NC(=O)c2ccc(-c3ccccc3)cc2)cc1)c1ccccc1 (relative stereo) [Example 47, N-(4-{trans-2-[(1-phenylethyl)amino]-cyclopropyl}phenyl)-biphenyl-4-carboxamide]	190	1.8	1.7
COCC(C)N[C@@H]1C[C@H]1c1ccc(NC(=O)c2ccc(-c3ccccc3)cc2)cc1 (relative stereo) [Example 48, N-(4-{trans-2-[(2-methoxy-1-methyl-ethyl)amino]cyclo-propyl}phenyl)-biphenyl-4-carboxamide]	< 100	4.3	3.8
CCC(CC)N[C@@H]1C[C@H]1c1ccc(NC(=O)c2ccc(-c3ccccc3)cc2)cc1 (relative stereo) [Example 49, N-(4-{trans-2-[(1-ethylpropyl)amino]-cyclopropyl}phenyl)-biphenyl-4-carboxamide]	< 100	> 10	> 10
CN1CCC(N[C@@H]2C[C@H]2c2ccc(NC(=O)c3ccc(-c4ccccc4)cc3)cc2)CC1 (relative stereo) [Example 50, N-(4-{trans-2-[(1-methylpiperidin-4-yl)amino]cyclo-propyl}phenyl)-biphenyl-4-carboxamide]	< 100	> 10	> 10
O=C(Nc1ccc([C@@H]2C[C@H]2NC2CCN(Cc3ccccc3)CC2)cc1)c1ccc(-c2ccccc2)cc1 (relative stereo) [Example 51, N-(4-{trans-2-[(1-benzylpiperidin-4-yl)amino]cyclo-propyl}phenyl)-biphenyl-4-carboxamide]	100	> 10	> 10
O=C(Nc1ccc([C@@H]2C[C@H]2NCCOCc2ccccc2)cc1)c1ccc(-c2ccccc2)cc1 (relative stereo) [Example 52, N-{4-[trans-2-{[2-(benzyloxy)ethyl]-amino}cyclopropyl]-phenyl}biphenyl-4-carboxamide]	160	> 10	> 10
